Experimental data as given in patent US4558054A, “Spasmolytic endo-8,8-dialkyl-8-azoniabicyclo (3.2.1) octane-6,7-exo-epoxy-3-alkyl-carboxylate salts” (priority 1983, dated 1985).
Like-named read-outs stand apart in the source and are kept apart here.

Tests used:
[1] = Intestinal transit in the mouse (inhibition of progression of opaque meal); details: in vivo, ip
Experimental: (§1) 3. Intestinal transit in the mouse
(§2) 3. intestinal transit in the mouse
(§3) An evaluation was made on the capacity of the studied compounds to inhibit the progression of an opaque meal 15 minutes after their intraperitoneal administration into the mouse. This test is indicative of undesirable side effects.
(§4) The method followed was the classical method of Janssen and Jageneau [Janssen P. A., Jageneau A. H., J. Pharm. Pharmacol. 9, 381 (1957)], by which the doses which inhibit the progression of the opaque meal through the small intestine by 50% (ED50) relative to the controls were calculated.
(§5) Activity affecting intestinal transit in the mouse after intra-
(§6) peritonal administration 15 minutes before taking the opaque

[2] = test system: mouse pupil (basal pupillary diameter); experiment: Mydriatic activity in the mouse; type: in vivo; details: for mydriatic activity lower than atropine methyl bromide: vs atropine methyl bromide
Experimental: 4. Mydriatic activity in the mouse
The dose able to increase the basal pupillary diameter by 150% (ED150)15 minutes, 30 minutes, 60 minutes and 120 minutes after intraperitoneal administration of the compounds into the mouse was calculated.
Mydriatic activity evaluated in the mouse 15 minutes, 30 minutes, 60
minutes after intraperitoneal administration

[3] = Acute toxicity in the mouse; type: in vivo; details: mouse, in vivo, ip; male mice (Swiss stock); Litchfield and Wilcoxon
Experimental: (§7) 5. Acute toxicity in the mouse
(§8) The acute toxicity of the compounds according to the invention was evaluated in comparison with that of Buscopan, atropine methyl bromide and syntropium bromide, after intraperitoneal administration in male mice (Swiss stock).
(§9) The LD50, the values of which together with the relative confidence limits (P=0.05) are given in Table 6, was calculated by the Litchfield and Wilcoxon method [Litchfield J. T., Wilcoxon F. A., J. Pharmac. Exp. Theor., 96, 99 (1949)].
(§10) Acute toxicity in the mouse after intraperitoneal administration

[4] = test system: isolated rat ileum (antagonist barium chloride); experiment: Isolated rat ileum, spasmolytic (direct myolytic) activity vs barium chloride, pA2; type: cell-based; parameters: key to pA2, spasmolytic effect: pA2 = −log molar antagonist conc. halving BaCl2-induced contraction; details: for pA2, spasmolytic effect: isolated rat ileum, barium chloride, 6 experiments, confidence limits P = 0.05; for direct myolytic activity relative to Buscopan: Buscopan activity = 1; for spasmolytic activity in words, rat ileum: compared with Buscopan; for Activity ratio: with respect to Buscopan (=1), antilogarithm of pA2 difference
Text: 1. Isolated rat ileum (antagonist barium chloride)
The spasmolytic activity of the compounds reported in Table 1 were studied firstly in a comparison with Buscopan (scopolamine butyl bromide), using the isolated rat ileum, by the classical Magnus method [Magnus and coll., Pflugers Gas. Physiol., 102, 123 (1904)], of which the smooth muscle was subjected to direct stimulation by barium chloride. The evaluation of this activity was made by the method involving the pA2 determination [Schild H. G., Brit. J. Pharmacol., 2, 189, (1947)]. The pA2 value is the negative logarithm of the molar concentration of the antagonist able to reduce the contraction induced by the antagonist (barium chloride) by 50%.
Spasmolytic effect evaluated on the isolated rat ileum with barium
chloride as antagonist, and expressed as the pA2 value.

[5] = target: T1, isolated guinea pig ileum (antagonist acetyl choline) (Cavia porcellus, UniProt H0W1Z3); experiment: Isolated guinea pig ileum, antimuscarinic activity vs acetyl choline, pA2; type: cell-based; details: for antimuscarinic spasmolytic activity in words, compared with Buscopan / spasmolytic activity relative to Buscopan: vs Buscopan; for antimuscarinic activity in words, compared with atropine: vs atropine
T1 construct: antimuscarinic activity using the isolated guinea pig ileum; from tissue; host or cells: isolated guinea pig ileum
T1 sequence (H0W1Z3 1-590): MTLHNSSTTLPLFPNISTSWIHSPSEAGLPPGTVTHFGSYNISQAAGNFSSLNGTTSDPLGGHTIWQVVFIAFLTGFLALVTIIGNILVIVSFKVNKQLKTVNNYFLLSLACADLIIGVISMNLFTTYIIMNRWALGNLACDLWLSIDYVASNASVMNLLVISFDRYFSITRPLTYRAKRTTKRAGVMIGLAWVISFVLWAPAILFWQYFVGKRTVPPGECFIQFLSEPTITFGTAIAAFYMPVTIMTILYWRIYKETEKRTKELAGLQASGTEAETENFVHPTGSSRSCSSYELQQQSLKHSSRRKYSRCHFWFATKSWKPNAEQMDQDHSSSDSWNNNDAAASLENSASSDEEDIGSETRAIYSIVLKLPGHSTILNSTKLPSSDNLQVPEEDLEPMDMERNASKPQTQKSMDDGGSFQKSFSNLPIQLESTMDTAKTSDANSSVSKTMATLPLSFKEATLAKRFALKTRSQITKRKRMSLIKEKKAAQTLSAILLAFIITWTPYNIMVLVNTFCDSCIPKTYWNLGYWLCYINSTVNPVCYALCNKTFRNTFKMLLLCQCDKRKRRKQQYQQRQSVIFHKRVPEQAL
Experimental: (§11) 2. Isolated guinea pig ileum (antagonist acetyl choline)
(§12) 2. Isolated guinea pig ileum
(§13) All the compounds were also tested for antimuscarinic activity using the isolated guinea pig ileum, with acetyl choline as antagonist.
(§14) The potency of action was evaluated by calculating the pA2 values, as in the case of the direct myolytic activity evaluated on the isolated rat ileum.
(§15) Antimuscarinic activity evaluated on the isolated guinea pig ileum
(§16) with acetyl choline as antagonist, expressed as pA2 value.

[6] = test system: T2, isolated guinea pig ileum (antagonist acetyl choline) (Cavia porcellus); experiment: as above; type: cell-based; details: with respect to Buscopan (=1)
T2 construct: antimuscarinic activity using the isolated guinea pig ileum; from tissue; host or cells: isolated guinea pig ileum
T2 sequence (H0W1Z3 1-590): as above
Experimental: as §11, §12, §13, §14, §15, §16

[7] = test system: intestinal transit in the mouse; experiment: Intestinal transit in the mouse (inhibition of progression of opaque meal); details: in vivo, ip
Experimental: as §1, §2, §3, §4, §5, §6

mouse = experiment: Acute toxicity in the mouse; type: in vivo; details: compared with reference standards / Buscopan
Experimental: as §7, §8, §9, §10

[8] = Overall pharmacological screening (spasmolytic activity and side effects); details: intestinal transit and mydriatic effect in the mouse
Experimental: The study was conducted using the following in vitro and in vivo tests, each time in comparison with Buscopan, atropine methyl bromide and syntropium bromide: […]

[9] = mouse, i.p., 150% increase of basal pupillary diameter
[10] = isolated guinea pig ileum, acetyl choline, 6 experiments, confidence limits P = 0.05, read-out: pA2, antimuscarinic activity (converted)

| Compound | ED50 [1] [mg/kg] | ED150 after 15 min [2, 9] [mg/kg/i.p.] | ED150 after 30 min [2, 9] [mg/kg/i.p.] | ED150 after 60 min [2, 9] [mg/kg/i.p.] | LD50 [3] [mg/kg] | pA2, spasmolytic effect [4] | spasmolytic activity in words, rat ileum [4] | Activity ratio [4] | Activity ratio [6] | Kb [5] [nM] | acute toxicity in words (mouse) | also measured |
| --- | --- | --- | --- | --- | --- | --- | --- | --- | --- | --- | --- | --- |
| C[N+]1(C)[C@@H]2CC[C@H]1C[C@@H](OC(=O)C(CO)c1ccccc1)C2 (stereo partly drawn) [Atropine MeBr, atropine methyl bromide] | 52.1 | 0.030 | 0.030 | 0.052 | 75 | – | – | – | – | – | – | – |
| CCCC[N+]1(C)[C@@H]2C[C@@H](OC(=O)[C@H](CO)c3ccccc3)C[C@H]1[C@@H]1O[C@@H]12 (stereo partly drawn) [Buscopan, scopolamine butyl bromide] | 51.7 | 3.24 | 3.29 | 3.66 | 65 | 6.84 | – | – | – | – | – | Kb [5, 10]: 46.8 nM; mydriatic activity over time, in words ([2]; mouse, i.p.): still possesses activity 120 minutes after its administration; ED150 after 120 min ([2]; mouse, i.p., 150% increase of basal pupillary diameter, 120 min): 5.32 mg/kg/i.p. |
| CCCC(CCC)C(=O)O[C@@H]1C[C@@H]2[C@H]3O[C@H]3[C@H](C1)[N+]2(C)C [No. 2, endo-8,8-dimethyl-8-azoniabicyclo[3.2.1]octane-6,7-exo-epoxy-3-(2-propyl)pentanoate bromide] | 79 | 0.21 | 0.42 | 1.46 | 93.5 | 8.06 | decidedly greater than those of Buscopan | 16.6 | 4.27 | 11 | decidedly lower toxicity | direct myolytic activity relative to Buscopan [4]: 16.6 times; antimuscarinic spasmolytic activity in words, compared with Buscopan [5]: decidedly greater than those of Buscopan; spasmolytic activity relative to Buscopan [5]: 4.27 times; antimuscarinic activity in words, compared with atropine [5]: approaches that of atropine itself; antimuscarinic activity in words, compared with syntropium bromide ([5]; vs syntropium bromide): much higher than; reduction of intestinal transit in words [7]: reduce intestinal transit to a decidedly lesser extent; mydriatic activity lower than atropine methyl bromide [2]: 10 times less; side effects in words [8]: lesser level of side effects |
| CCCC(CCC)C(=O)O[C@@H]1C[C@@H]2[C@H]3O[C@H]3[C@H](C1)[N@+]2(C)CC [No. 5, endo-8-methyl-8-syn-ethyl-8-azoniabicyclo[3.2.1]octane-6,7-exo-epoxy-3-(2-propyl)pentanoate bromide] | 73.2 | 2.17 | 6.16 | – | 74 | 7.73 | decidedly greater than those of Buscopan | 7.8 | 2.25 | 19.1 | lower toxicity | direct myolytic activity relative to Buscopan [4]: 7.8 times; antimuscarinic spasmolytic activity in words, compared with Buscopan [5]: decidedly greater than those of Buscopan; spasmolytic activity relative to Buscopan [5]: 2.45 times; antimuscarinic activity in words, compared with atropine [5]: approaches that of atropine itself; reduction of intestinal transit in words [7]: reduce intestinal transit to a decidedly lesser extent; mydriatic activity lower than atropine methyl bromide [2]: > 100 times less; side effects in words [8]: lesser level of side effects |
| CCCC(CCC)C(=O)O[C@@H]1C[C@@H]2[C@H]3O[C@H]3[C@H](C1)[N@+]2(C)C(C)C [No. 8, endo-8-methyl-8-syn-(1-methyl)ethyl-8-azoniabicyclo[3.2.1]octane-6,7-exo-epoxy-3-(2-propyl)pentanoate bromide] | ~69 | – | – | – | 78 | 5.72 | good spasmolytic activity | 0.08 | 0.15 | 302 | – | – |
| CCCC[N@+]1(C)[C@@H]2C[C@@H](OC(=O)C(CCC)CCC)C[C@H]1[C@@H]1O[C@@H]12 [No. 10, endo-8-methyl-8-syn-butyl-8-azoniabicyclo[3.2.1]octane-6,7-exo-epoxy-3-(2-propyl)pentanoate bromide] | ~85 | – | – | – | 105 | – | – | – | – | – | decidedly lower toxicity | – |
| CCCC(CCC)C(=O)O[C@@H]1C[C@@H]2[C@H]3O[C@H]3[C@H](C1)[N@@+]2(C)CC [No. 12, endo-8-methyl-8-anti-ethyl-8-azoniabicyclo[3.2.1]octane-6,7-exo-epoxy-3-(2-propyl)pentanoate bromide] | 42.2 | – | – | – | 72 | 6.66 | activity similar to that of Buscopan | 0.7 | 0.50 | 93.3 | – | activity lower than Buscopan ([4]; vs Buscopan): 1.5 times lower |
| CCCC(CCC)C(=O)OC1CC2CCC(C1)[N+]2(C)C(C)C (stereo not drawn) [Syntropium Br, syntropium bromide, reference compound] | – | – | – | – | 65 | – | – | – | 2.57 | – | – | Kb [5, 10]: 18.2 nM; ED50 ([1]; 15 minutes before opaque meal, indicative of side effects, read-out: ED50, inhibition of progression of opaque meal by 50%): 29.8 mg/kg |
